Patent publication US20060239926A1, “Specific high-relaxivity compounds” (GUERBET, priority 2003, published 2006)
*: point of attachment. Cbz = O=C(OCc1ccccc1)*; NHOH = ON*

How the values were obtained:
[1] = target: FBP; conditions: cited from earlier work; for affinity for FBP relative to folic acid: order: pemetrexed>CB3717>IAHQ>2-NH2-ZD1694
[2] = system: tumours; assay: Study of MRI imaging between 30 minutes and 24 hours with Gd assays by ICP-MS; assay type: in vivo
Experimental: (§1) The molar BIO-FOLATE.I relaxivity in water is very good, in particular at 60 MHz: r1=53 mM^−1·s^−1. It is recalled that the relaxivity obtained with specific products of the prior art of the type such as dendrimer associated with folates is r1=9.32 mM^−1s^−1 per Gd (Investigative Radiology, January 2000, vol 35, p 56). • Study of MRI imaging between 30 minutes and 24 hours the contrast at the level of the tumour is very clear, in particular 1 to 2 hours after injection. In addition, Gd assays by ICP-MS; were carried out on the reference organs at the end of the assays using the imager. […] The tumour/muscle ratio is of the order of 4 to 10 times that observed with previously used contrast products. Experimental Conditions for the BIACORE 3000 Studies on P860 and BIO-FOLATE.I (Study of Affinity Between P860, BIO-FOLATE.I, and Folate Binding Protein by Means of BIAcore 3000).

[3] = system: KB tumours; assay: Biodistribution study on nude mice bearing KB tumours
Text: c. Biodistribution study on nude mice bearing KB tumours: this biodistribution study comprised competition between P860 and free-folic acid. A group of animals received normal food and a co-injection of folic acid with the product tested and another was given a folate-depleted diet through a single injection of the product tested.
Conditions for Biodistribution Study on Nude Mice Part 1: • Induction of subcutaneous tumours in nude female mice and […] of human KB cells. • Separation of the animals into 2 groups receiving a diet with or without folate (10 days). • The group with folate receives an additional injection of folic acid (25 μmol/kg IV) 5 minutes before the injections of contrast product (CP). • IV injection of CP then removal of organ samples (muscle, tumour, liver, kidneys) and plasma samples. Part 2: Assays by ICP-AES • Gd assay (P860, BIO-FOLATE.I, Dotarem): liver, kidney. Part 3: Bioanalysis: Assay by ICP-MS • Gd assay (P860, BIO-FOLATE.I, Dotarem): tumour, muscle, plasma
Supplementing with Folate • 5.5 mM folic acid diluted in PBS and then injected at a dose of 25 μmol/kg (4.54 ml/kg).
Folic acid and CP: IV administration (caudal vein).
The folic acid was injected 5 minutes before the injection of CP.
Results: Tumour Distribution of the PC—Gd

[4] = Molar relaxivity (r1, r2) measurement; assay type: physicochemical; conditions: 60 MHz; in water; 2 Gd per mol of product; uncertainty +/−5%
Text: Since BIO-FOLATE.I has 2 Gd per mol of product, the molar relaxivity values are summarized in this table (uncertainty +/−5%).

[5] = target: T1, Folate Binding Protein (FBP) (Bos taurus, UniProt P02702); assay: Study of affinity with Folate Binding Protein by means of BIAcore 3000
T1 construct: purchased Sigma F-0504
T1 sequence (P02702 20-234): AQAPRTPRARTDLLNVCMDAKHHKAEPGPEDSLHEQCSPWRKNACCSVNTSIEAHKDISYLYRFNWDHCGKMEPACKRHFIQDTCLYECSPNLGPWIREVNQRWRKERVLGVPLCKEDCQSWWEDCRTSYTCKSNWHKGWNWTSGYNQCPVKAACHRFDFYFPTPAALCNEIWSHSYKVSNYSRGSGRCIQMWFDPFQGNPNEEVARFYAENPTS
Experimental: as §1
PGM buffer: 100 mM KH2PO4, pH 7, 10% glycerol and 4 mM β-mercaptoethanol
The FBP was immobilized at 1 mg/ml in PGM buffer according to the protocols recommended by BIAcore for coupling amines. Next, the remaining active carboxylated groups are saturated with 1M ethanolamine, pH=8.
The folate binding was followed at four different concentrations (125, 250, 500 and 1000 μM). The association and the dissociation were studied with a flow rate at 30 μl/min. […]

[6] = system: KB cells; assay: In vitro study of binding/internalization in KB cells; assay type: cell-based, Human; conditions: 37° C., with or without excess free folic acid; ICP-MS assays
[7] = target: T2, human MMP-1 (Homo sapiens, UniProt P03956); assay: In vitro MMP-inhibiting activity (fluorimetry), MMP-1; assay type: biochemical; conditions: for CONCENTRATION OF PEPTIDE (with significant inhibitory effect): tested at 10^−5, 10^−7 and 10^−9 M with respect to peptides
T2 sequence (P03956 100-469): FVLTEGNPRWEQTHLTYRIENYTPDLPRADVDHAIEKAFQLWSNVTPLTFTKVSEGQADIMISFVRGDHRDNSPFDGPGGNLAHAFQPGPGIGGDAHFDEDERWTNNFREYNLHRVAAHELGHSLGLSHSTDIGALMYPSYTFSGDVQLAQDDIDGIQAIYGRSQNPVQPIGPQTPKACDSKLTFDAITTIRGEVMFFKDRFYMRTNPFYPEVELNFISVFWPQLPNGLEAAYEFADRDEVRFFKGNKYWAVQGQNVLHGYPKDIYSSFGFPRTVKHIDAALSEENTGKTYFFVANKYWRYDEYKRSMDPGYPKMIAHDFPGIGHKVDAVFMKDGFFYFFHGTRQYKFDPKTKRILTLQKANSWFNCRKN
Experimental: The inventors assayed the in vitro activity of the P947 and P967 gadolinium-chelate contrast products functionalized with matrix metalloproteases inhibitors (MMPs), on human MMP-1 and MMP-3. As regards the affinity of the biovector component, on the receptor, the controls were two peptides:
More precisely, the in vitro MMP-inhibiting activity was evaluated in the following way: • 1. Incubation of the test product in the presence of the MMP enzyme, at 37° C., for a defined period of time, and then measurement of the fluorescence of the medium (t=0). • 2. Induction of the enzyme reaction by addition of the substrate to (which becomes fluorescent when it is cleaved by the enzyme), and then incubation at 37° C. for 40 min. A second measurement of fluorescence is then taken (t=40). • 3. The activity of the MMP enzyme is determined by subtraction of the signal measured by fluorimetry: (t=40)-(t=0). • 4. The results are expressed as percentage inhibition of the activity of the control enzyme. • 5. The standard inhibitory product is TIMP-1.
The products were tested in duplicate, at 10^−5, 10^−7 and 10^−9 M with respect to peptides. Those which contain no peptides were treated in a manner similar to the corresponding functionalized contrast products.

[8] = target: T2, human MMP-1; conditions: value of the peptide component, not of the Gd conjugate, read-out: IC50 OF THE PEPTIDE (LITERATURE); cited from earlier work
[9] = target: αvβ5 (Homo sapiens, UniProt P06756+P18084); conditions: cited from earlier work
Sequence of αvβ5 (P06756 31-889 limits assumed): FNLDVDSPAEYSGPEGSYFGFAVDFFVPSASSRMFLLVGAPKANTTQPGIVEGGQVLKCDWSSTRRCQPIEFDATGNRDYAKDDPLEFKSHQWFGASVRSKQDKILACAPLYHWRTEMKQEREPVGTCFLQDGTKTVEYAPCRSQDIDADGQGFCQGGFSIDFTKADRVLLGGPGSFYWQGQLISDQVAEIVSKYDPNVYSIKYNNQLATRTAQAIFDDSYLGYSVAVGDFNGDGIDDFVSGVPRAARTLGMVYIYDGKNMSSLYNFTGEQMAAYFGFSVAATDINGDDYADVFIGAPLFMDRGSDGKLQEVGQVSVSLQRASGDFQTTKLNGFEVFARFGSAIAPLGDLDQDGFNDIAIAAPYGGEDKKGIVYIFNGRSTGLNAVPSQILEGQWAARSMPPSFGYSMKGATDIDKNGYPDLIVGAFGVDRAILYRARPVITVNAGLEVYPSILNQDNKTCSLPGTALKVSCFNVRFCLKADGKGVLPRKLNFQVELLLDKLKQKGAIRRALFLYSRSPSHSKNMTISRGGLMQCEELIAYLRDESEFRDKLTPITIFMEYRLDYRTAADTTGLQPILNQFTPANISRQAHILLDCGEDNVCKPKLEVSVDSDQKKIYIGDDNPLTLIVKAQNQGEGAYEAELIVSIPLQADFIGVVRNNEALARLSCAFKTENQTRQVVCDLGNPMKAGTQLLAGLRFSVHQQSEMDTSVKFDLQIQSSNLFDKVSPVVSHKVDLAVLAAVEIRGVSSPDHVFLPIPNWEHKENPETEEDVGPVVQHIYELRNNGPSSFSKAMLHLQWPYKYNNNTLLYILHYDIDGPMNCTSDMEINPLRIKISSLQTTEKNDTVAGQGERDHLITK
Sequence of αvβ5 (P06756 891-1048 partner limits assumed): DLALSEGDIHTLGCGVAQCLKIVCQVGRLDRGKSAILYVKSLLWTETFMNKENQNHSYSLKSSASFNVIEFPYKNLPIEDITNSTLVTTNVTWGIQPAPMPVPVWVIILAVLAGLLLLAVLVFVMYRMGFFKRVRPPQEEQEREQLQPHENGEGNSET
Sequence of αvβ5 (P18084 24-799): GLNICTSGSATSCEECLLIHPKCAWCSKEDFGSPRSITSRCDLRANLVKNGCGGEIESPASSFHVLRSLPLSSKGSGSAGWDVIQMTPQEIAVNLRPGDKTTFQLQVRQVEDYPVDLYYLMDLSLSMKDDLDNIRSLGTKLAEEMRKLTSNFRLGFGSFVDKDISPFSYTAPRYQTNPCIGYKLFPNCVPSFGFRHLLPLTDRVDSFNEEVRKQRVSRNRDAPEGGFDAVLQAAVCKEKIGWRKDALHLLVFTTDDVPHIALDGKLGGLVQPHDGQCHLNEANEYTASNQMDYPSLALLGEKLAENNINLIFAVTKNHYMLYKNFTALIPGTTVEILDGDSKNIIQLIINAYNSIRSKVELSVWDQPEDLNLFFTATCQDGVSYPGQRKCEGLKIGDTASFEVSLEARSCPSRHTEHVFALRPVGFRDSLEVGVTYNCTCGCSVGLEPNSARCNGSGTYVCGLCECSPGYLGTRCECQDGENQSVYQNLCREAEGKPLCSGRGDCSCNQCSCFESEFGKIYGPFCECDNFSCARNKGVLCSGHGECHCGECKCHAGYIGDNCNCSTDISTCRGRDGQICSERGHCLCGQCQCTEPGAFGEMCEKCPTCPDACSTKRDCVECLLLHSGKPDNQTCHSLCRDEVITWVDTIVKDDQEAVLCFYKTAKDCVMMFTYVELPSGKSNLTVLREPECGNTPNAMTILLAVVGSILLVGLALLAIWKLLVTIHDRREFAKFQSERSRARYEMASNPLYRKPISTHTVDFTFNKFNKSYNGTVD

[10] = target: α5β1 (Homo sapiens, UniProt P05556+P08648); conditions: cited from earlier work
Sequence of α5β1 (P08648 42-894 limits assumed): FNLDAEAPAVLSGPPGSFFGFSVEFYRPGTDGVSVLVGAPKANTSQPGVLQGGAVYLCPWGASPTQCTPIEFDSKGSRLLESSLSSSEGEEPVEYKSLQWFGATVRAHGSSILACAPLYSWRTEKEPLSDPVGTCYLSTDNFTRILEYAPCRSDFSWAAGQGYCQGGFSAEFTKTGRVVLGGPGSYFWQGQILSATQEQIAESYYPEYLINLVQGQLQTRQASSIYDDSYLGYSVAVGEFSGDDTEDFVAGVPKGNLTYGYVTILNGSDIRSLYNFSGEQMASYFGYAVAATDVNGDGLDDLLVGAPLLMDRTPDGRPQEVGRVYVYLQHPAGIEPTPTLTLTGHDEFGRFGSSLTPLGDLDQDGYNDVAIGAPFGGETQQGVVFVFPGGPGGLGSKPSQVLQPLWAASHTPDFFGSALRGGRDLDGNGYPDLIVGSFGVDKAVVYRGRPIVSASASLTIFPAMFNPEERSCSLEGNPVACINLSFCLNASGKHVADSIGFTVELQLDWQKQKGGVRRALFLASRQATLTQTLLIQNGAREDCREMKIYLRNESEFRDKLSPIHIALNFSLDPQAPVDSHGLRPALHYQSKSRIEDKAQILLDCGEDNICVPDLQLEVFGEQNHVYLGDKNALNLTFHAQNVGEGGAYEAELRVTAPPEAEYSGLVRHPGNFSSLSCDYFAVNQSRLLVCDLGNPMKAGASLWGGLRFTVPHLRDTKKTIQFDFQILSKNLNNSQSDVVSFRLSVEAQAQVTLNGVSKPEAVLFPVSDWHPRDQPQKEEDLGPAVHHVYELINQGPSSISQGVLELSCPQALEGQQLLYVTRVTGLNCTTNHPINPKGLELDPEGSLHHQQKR
Sequence of α5β1 (P08648 895-1049 partner limits assumed): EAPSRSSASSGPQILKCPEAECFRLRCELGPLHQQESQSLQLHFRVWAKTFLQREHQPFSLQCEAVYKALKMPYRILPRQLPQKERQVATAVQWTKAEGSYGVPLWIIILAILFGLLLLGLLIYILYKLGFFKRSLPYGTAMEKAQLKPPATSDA
Sequence of α5β1 (P05556 21-798): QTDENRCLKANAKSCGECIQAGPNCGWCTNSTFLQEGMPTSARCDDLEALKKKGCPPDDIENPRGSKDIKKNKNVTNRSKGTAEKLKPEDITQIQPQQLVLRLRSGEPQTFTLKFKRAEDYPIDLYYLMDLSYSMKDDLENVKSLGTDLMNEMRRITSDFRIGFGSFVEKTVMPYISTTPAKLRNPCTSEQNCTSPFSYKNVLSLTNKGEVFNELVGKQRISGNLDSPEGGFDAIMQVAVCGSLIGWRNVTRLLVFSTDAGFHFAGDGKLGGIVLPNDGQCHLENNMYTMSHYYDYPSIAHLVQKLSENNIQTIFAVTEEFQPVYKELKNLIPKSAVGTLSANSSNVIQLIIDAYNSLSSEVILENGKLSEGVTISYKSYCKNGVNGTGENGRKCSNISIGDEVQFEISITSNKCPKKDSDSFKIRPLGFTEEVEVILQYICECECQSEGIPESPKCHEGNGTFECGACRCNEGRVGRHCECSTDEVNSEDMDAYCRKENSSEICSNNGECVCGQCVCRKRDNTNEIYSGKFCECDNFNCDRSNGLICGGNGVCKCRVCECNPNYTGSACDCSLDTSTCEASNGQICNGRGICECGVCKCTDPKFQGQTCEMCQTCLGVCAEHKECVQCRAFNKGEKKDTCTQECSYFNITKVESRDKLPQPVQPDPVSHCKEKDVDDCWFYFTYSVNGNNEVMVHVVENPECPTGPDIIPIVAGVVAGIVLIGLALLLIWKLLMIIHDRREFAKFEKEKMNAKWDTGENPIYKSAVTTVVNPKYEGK

Molecule: NC1=NC2=C(S[C@H](CCc3ccc(C(=O)N[C@@H](CCC(=O)O)C(=O)O)s3)CN2)C(O)N1 (some centres unmarked)
- Kd [1]: 0.0032 nM

Molecule: Nc1nc2ncc(CNc3ccc(C(=O)N[C@@H](CCC(=O)NCCCOCCOCCOCCCNc4c(NCCOCCOCCNc5nc(Nc6ccc(CCC(C(=O)O)N7CCN(C(CCC(=O)NCC(=O)Nc8c(Br)c(C(=O)N(CC(O)C(O)C(O)C(O)CO)CC(O)C(O)C(O)C(O)CO)c(Br)c(C(=O)N(CC(O)C(O)C(O)C(O)CO)CC(O)C(O)C(O)C(O)CO)c8Br)C(=O)O)CCN(C(CCC(=O)NCC(=O)Nc8c(Br)c(C(=O)N(CC(O)C(O)C(O)C(O)CO)CC(O)C(O)C(O)C(O)CO)c(Br)c(C(=O)N(CC(O)C(O)C(O)C(O)CO)CC(O)C(O)C(O)C(O)CO)c8Br)C(=O)O)CCN(C(CCC(=O)NCC(=O)Nc8c(Br)c(C(=O)N(CC(O)C(O)C(O)C(O)CO)CC(O)C(O)C(O)C(O)CO)c(Br)c(C(=O)N(CC(O)C(O)C(O)C(O)CO)CC(O)C(O)C(O)C(O)CO)c8Br)C(=O)O)CC7)cc6)nc(Nc6ccc(CCC(C(=O)O)N7CCN(C(CCC(=O)NCC(=O)Nc8c(Br)c(C(=O)N(CC(O)C(O)C(O)C(O)CO)CC(O)C(O)C(O)C(O)CO)c(Br)c(C(=O)N(CC(O)C(O)C(O)C(O)CO)CC(O)C(O)C(O)C(O)CO)c8Br)C(=O)O)CCN(C(CCC(=O)NCC(=O)Nc8c(Br)c(C(=O)N(CC(O)C(O)C(O)C(O)CO)CC(O)C(O)C(O)C(O)CO)c(Br)c(C(=O)N(CC(O)C(O)C(O)C(O)CO)CC(O)C(O)C(O)C(O)CO)c8Br)C(=O)O)CCN(C(CCC(=O)NCC(=O)Nc8c(Br)c(C(=O)N(CC(O)C(O)C(O)C(O)CO)CC(O)C(O)C(O)C(O)CO)c(Br)c(C(=O)N(CC(O)C(O)C(O)C(O)CO)CC(O)C(O)C(O)C(O)CO)c8Br)C(=O)O)CC7)cc6)n5)c(=O)c4=O)C(=O)O)cc3)nc2c(=O)[nH]1 (some centres unmarked) [BIO-FOLATE.I]
- contrast at the level of the tumour (MRI) ([2]; between 30 minutes and 24 hours, in particular 1 to 2 hours after injection): very clear
- heightening of the tumours, duration ([2]; versus products of the prior art): longer lasting than with products of the prior art
- accumulation in the tumours ([3]; 15 μmol/kg): excellent accumulation
- decrease of product in the tumour by folic acid ([3]; competition with free folate, times 4 and 24 h): 2 times less
- injected dose found in the tumour ([3]; female, nude, mouse, in vivo, iv): 5-8%
- injected theoretical dose found in the tumours ([3]; folate-free diet, at 4 h): 14%
- injected theoretical dose found in the tumours ([3]; folate-free diet, at 72 h): 7%
- effect of prior injection of free folic acid on tumour Gd ([3]; free folic at 25 μmol/kg before the product): decrease the Gd concentrations assayed in the tumours
- activity in vivo ([3]; in vivo studies (biodistribution, MRI)): P860 is inactive in vivo unlike BIO-FOLATE.I and BIO-FOLATE.II
- molar r1 [4]: 53 mM⁻¹ s⁻¹
- binding to FBP (folate binding protein) in vitro [5]: binds specifically to FBP
- amount of product specifically bound and internalized in KB cells [6]: Correct capture

Molecule: C#CCN(Cc1ccc2nc(N)[nH]c(=O)c2c1)c1ccc(C(=O)N[C@@H](CCC(=O)O)C(=O)O)cc1 [CB3717]
- affinity for FBP relative to folic acid [1]: affinity greater than folic acid

Molecule: CNC[C@H](O)[C@@H](O)[C@H](O)[C@H](O)CO.O=C([O-])CN1CCN(CC(=O)[O-])CCN(CC(=O)O)CCN(CC(=O)[O-])CC1.[Gd+3] [Dotarem]
- injected theoretical dose found in the tumours ([3]; mouse, in vivo): 1-2%
- intratumour amounts corrected for g of tissue ([3]; mouse, in vivo): negligable beyond 4 h

Molecule: CN(Cc1ccc2nc(N)[nH]c(=O)c2c1)c1ccc(C(=O)NC(CCC(=O)O)C(=O)O)s1 (centres unmarked) [Example 2-NH2-ZD1694]
- affinity for FBP relative to folic acid [1]: affinity greater than folic acid

Molecule: CC(C)C[C@@H](NC(=O)[C@@H]1CCCN1C(=O)CNC(=O)c1ccc(NC(=S)Nc2ccc(CCC(C(=O)O)N3CCN(CC(=O)O)CCN(CC(=O)O)CCN(CC(=O)O)CC3)cc2)cc1)C(=O)N[C@@H](C)C(=O)NO (some centres unmarked) [Example P947]
- SIGNIFICANT INHIBITORY EFFECT ([7]; concentration of peptide 10^−5M): 86%
- CONCENTRATION OF PEPTIDE (with significant inhibitory effect) [7]: 10^−5M
- IC50 [8]: 1000 nM

Molecule: Nc1nc2ccc(NCc3ccc(C(=O)N[C@@H](CCC(=O)O)C(=O)O)cc3)cc2c(=O)[nH]1 [IAHQ]
- affinity for FBP relative to folic acid [1]: affinity greater than folic acid

Molecule: Nc1nc(O)c2c(CCc3ccc(C(=O)N[C@@H](CCC(=O)O)C(=O)O)cc3)c[nH]c2n1 [pemetrexed]
- affinity for FBP relative to folic acid [1]: affinity greater than folic acid

Molecule: Cbz-Pro-Leu-Gly-{NHOH} [PEPTIDE A]
- CONCENTRATION OF PEPTIDE (with significant inhibitory effect) [7]: >10^−5M
- IC50 [8]: 40000 nM

Molecule: cyclo(ARGD-Mamb) [XJ735]
- blocking of αvβ5 [9]: does not block
- blocking of α5β1 [10]: does not block
